The values below come from patent publication US10669242B2 (priority 2016, dated 2020).

The structures appear in SMILES notation. Read-outs that look alike come from different tables or passages of the source.

The target in this experiment is T1, recombinant glucosyltransferase domain of C. difficile Toxin B/TcdB (Clostridioides difficile, UniProt P18177).
T1 construct: 6-His (C); purchased R&D Systems 6246-GT
As to the kind of experiment: biochemical.

T1 sequence (P18177 1-543): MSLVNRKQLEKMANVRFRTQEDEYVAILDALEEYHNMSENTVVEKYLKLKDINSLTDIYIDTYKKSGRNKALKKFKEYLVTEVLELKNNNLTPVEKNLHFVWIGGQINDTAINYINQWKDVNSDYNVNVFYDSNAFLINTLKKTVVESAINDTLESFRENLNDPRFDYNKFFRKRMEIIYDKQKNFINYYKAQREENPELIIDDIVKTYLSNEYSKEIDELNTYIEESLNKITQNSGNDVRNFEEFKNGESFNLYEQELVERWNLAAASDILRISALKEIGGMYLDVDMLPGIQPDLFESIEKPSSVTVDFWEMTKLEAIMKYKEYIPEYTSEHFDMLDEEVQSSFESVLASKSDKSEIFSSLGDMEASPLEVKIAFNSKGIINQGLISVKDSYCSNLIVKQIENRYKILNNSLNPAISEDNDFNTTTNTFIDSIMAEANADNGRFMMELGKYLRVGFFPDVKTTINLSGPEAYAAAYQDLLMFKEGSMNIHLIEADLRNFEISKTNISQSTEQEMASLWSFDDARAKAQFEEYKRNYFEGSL

Turning to `Cc1cnc(NC(=O)c2ccc(CN3C(=O)c4ccc(Cl)cc4NC(=O)[C@H]3Cc3ccccn3)cc2)nc1` [Example 5l, (R)-4-((8-chloro-2,5-dioxo-3-(pyridin-2-ylmethyl)-2,3-dihydro-1H-benzo[e][1,4]diazepin-4(5H)-yl)methyl)-N-(5-methylpyrimidin-2-yl)benzamide], the half-maximal inhibitory concentration (IC50) is below 100 nM.
Consider `O=C(Nc1ccncn1)c1ccc(CN2C(=O)c3ccc(Cl)cc3NC(=O)[C@H]2Cc2cccnc2)cc1` [Example 4t, (R)-4-((8-chloro-2,5-dioxo-3-(pyridin-3-ylmethyl)-2,3-dihydro-1H-benzo[e][1,4]diazepin-4(5H)-yl)methyl)-N-(pyrimidin-4-yl)benzamide], for which the IC50 was below 100 nM.
As to `O=C(Nc1ccc(CN2C(=O)c3ccc(Cl)cc3NC(=O)[C@H]2Cc2ccccn2)cc1)c1cc(Cl)ccn1` [Example 26h], the IC50 lay in the range of 100 to 999 nM.
As to `Cc1ccc(NC(=O)c2ccc(CN3C(=O)c4ccc(Cl)cc4NC(=O)[C@H]3CCN3CCCCC3)cc2)nc1` [Example 10b, (R)-4-((8-chloro-2,5-dioxo-3-(2-(piperidin-1-yl)ethyl)-2,3-dihydro-1H-benzo[e][1,4]diazepin-4(5H)-yl)methyl)-N-(5-methylpyridin-2-yl)benzamide], the IC50 was 10000 to 35000 nM.
`O=C(O)c1ccc(CN2C(=O)c3ccc(Cl)cc3NC(=O)[C@H]2Cc2cscn2)cc1` [Example 1m]: the IC50 was in the range of 1000 to 10000 nM.
In the case of `Cc1ccc(NC(=O)c2ccc(CN3C(=O)c4ccc(Cl)cc4NC(=O)[C@H]3CCN3CCOCC3)cc2)nc1` [Example 10a, (R)-4-((8-Chloro-3-(2-morpholinoethyl)-2,5-dioxo-2,3-dihydro-1H-benzo[e][1,4]diazepin-4(5H)-yl)methyl)-N-(5-methylpyridin-2-yl)benzamide], the IC50 fell in the range of 1000 to 10000 nM.
On the same count and under the same terms, the value for `Cc1ccc(NC(=O)c2ccc(CN3C(=O)c4ccc(Cl)cc4NC(=O)[C@H]3Cc3ccccn3)s2)nc1` [Example 4bs, (R)-5-((8-chloro-2,5-dioxo-3-(pyridin-2-ylmethyl)-2,3-dihydro-1H-benzo[e][1,4]diazepin-4(5H)-yl)methyl)-N-(5-methylpyridin-2-yl)thiophene-2-carboxamide] was 100 to 999 nM; that for `Cc1cnc2c(c1)CCN2C(=O)c1ccc(CN2C(=O)c3ccc(Cl)cc3NC(=O)[C@H]2Cc2ccccn2)cc1` [Example 4af, (R)-8-chloro-4-(4-(5-methyl-2,3-dihydro-1H-pyrrolo[2,3-b]pyridine-1-carbonyl)benzyl)-3-(pyridin-2-ylmethyl)-3,4-dihydro-1H-benzo[e][1,4]diazepine-2,5-dione] was below 100 nM.
As for `O=C(Nc1ccccn1)c1ccc(CN2C(=O)c3ccc(F)cc3NC(=O)[C@H]2Cc2ccc(Cl)c(Cl)c2)cc1` [Example 4q, (R)-4-((3-(3,4-dichlorobenzyl)-8-fluoro-2,5-dioxo-2,3-dihydro-1H-benzo[e][1,4]diazepin-4(5H)-yl)methyl)-N-(pyridin-2-yl)benzamide], the IC50 lay in the range of 100 to 999 nM.
In the case of `O=C(Nc1ccccn1)c1ccc(S(=O)(=O)N2Cc3ccc(Cl)cc3NC(=O)[C@H]2Cc2ccccn2)cc1` [Example 19b, (R)-4-((8-chloro-2-oxo-3-(pyridin-2-ylmethyl)-2,3-dihydro-1H-benzo[e][1,4]diazepin-4(5H)-yl)sulfonyl)-N-(pyridin-2-yl)benzamide], the half-maximal inhibitory concentration (IC50) was below 100 nM.
In the case of `Cc1nnc(NC(=O)c2ccc(CN3C(=O)c4ccc(Cl)cc4NC(=O)[C@H]3Cc3ccccn3)cc2)o1` [Example 4bo, (R)-4-((8-chloro-2,5-dioxo-3-(pyridin-2-ylmethyl)-2,3-dihydro-1H-benzo[e][1,4]diazepin-4(5H)-yl)methyl)-N-(5-methyl-1,3,4-oxadiazol-2-yl)benzamide], the IC50 was below 100 nM.
Turning to `O=C(O)c1ccc(CN2C(=O)c3ccc([N+](=O)[O-])cc3NC(=O)[C@H]2Cc2ccc(Cl)c(Cl)c2)cc1` [Example 2h], the IC50 is 1000 to 10000 nM.
On the same count and under the same terms, the value for `Cc1ccc(NC(=O)c2ccc(CN3C(=O)c4ccc(Cl)cc4NC(=O)[C@@H]3Cc3cscn3)cc2)nc1` [Example 35a, (S)-4-((8-Chloro-2,5-dioxo-3-(thiazol-4-ylmethyl)-2,3-dihydro-1H-benzo[e][1,4]diazepin-4(5H)-yl)methyl)-N-(5-methylpyridin-2-yl)benzamide] was 100 to 999 nM.
Same read-out and setting: the value for `O=C(Nc1ncccc1Cl)c1ccc(CN2C(=O)c3ccc(Cl)cc3NC(=O)[C@H]2Cc2cccnc2)cc1` [Example 5e, (R)-4-((8-chloro-2,5-dioxo-3-(pyridin-3-ylmethyl)-2,3-dihydro-1H-benzo[e][1,4]diazepin-4(5H)-yl)methyl)-N-(3-chloropyridin-2-yl)benzamide] was 100 to 999 nM; that for `CCc1ccc(NC(=O)c2ccc(CN3C(=O)c4ccc(Cl)cc4NC(=O)[C@H]3C)cc2)nc1` [Example 4ay, (R)-4-((8-chloro-3-methyl-2,5-dioxo-2,3-dihydro-1H-benzo[e][1,4]diazepin-4(5H)-yl)methyl)-N-(5-ethylpyridin-2-yl)benzamide] was 100 to 999 nM; that for `O=C(Nc1cnccn1)c1ccc(CN2C(=O)c3ccc(Cl)cc3NC(=O)[C@H]2Cc2ccccn2)cc1` [Example 5u, (R)-4-((8-chloro-2,5-dioxo-3-(pyridin-2-ylmethyl)-2,3-dihydro-1H-benzo[e][1,4]diazepin-4(5H)-yl)methyl)-N-(pyrazin-2-yl)benzamide] was below 100 nM.
As for `O=C(Nc1ccccn1)c1ccc(CN2C(=O)c3ccc(Cl)cc3NC(=O)[C@H]2Cc2ccccn2)cc1` [Example 4v, (R)-4-((8-chloro-2,5-dioxo-3-(pyridin-2-ylmethyl)-2,3-dihydro-1H-benzo[e][1,4]diazepin-4(5H)-yl)methyl)-N-(pyridin-2-yl)benzamide], the IC50 was below 100 nM.
`COc1ccc2c(c1)NC(=O)[C@@H](Cc1ccc(Cl)c(Cl)c1)N(Cc1ccc(C(=O)O)cc1)C2=O` [Example 2f]: the concentration for half-maximal inhibition (IC50) lay in the range of 1000 to 10000 nM.
As for `Cc1noc(C)c1-c1cc(CN2C(=O)c3ccc(Cl)cc3NC(=O)[C@H]2Cc2ccccn2)ccc1C(=O)O` [Example 8t, 4-(((R)-8-chloro-2,5-dioxo-3-(pyridin-2-ylmethyl)-2,3-dihydro-1H-benzo[e][1,4]diazepin-4(5H)-yl)methyl)-2-(3,5-dimethylisoxazol-4-yl)benzoic acid], the IC50 is 1000 to 10000 nM.
For the compound `O=C(Nc1ccccn1)c1ccc(S(=O)(=O)N2Cc3ccc(Cl)cc3NC(=O)[C@@H]2Cc2ccccn2)cc1` [Example 19c, (S)-4-((8-chloro-2-oxo-3-(pyridin-2-ylmethyl)-2,3-dihydro-1H-benzo[e][1,4]diazepin-4(5H)-yl)sulfonyl)-N-(pyridin-2-yl)benzamide], the IC50 fell in the range of 100 to 999 nM.
Take `Cc1cc(CN2C(=O)c3ccc(Cl)cc3NC(=O)[C@H]2Cc2ccccn2)ccc1C(=O)c1ccccn1` [Example 11h, (R)-8-chloro-4-(3-methyl-4-picolinoylbenzyl)-3-(pyridin-2-ylmethyl)-3,4-dihydro-1H-benzo[e][1,4]diazepine-2,5-dione]: the 50% inhibitory concentration (IC50) was below 100 nM.
Turning to `C[C@H]1C(=O)Nc2cc(Cl)ccc2C(=O)N1Cc1ccc(C(=O)Nc2ccccn2)cc1` [Example 4f, (S)-4-((8-chloro-3-methyl-2,5-dioxo-2,3-dihydro-1H-benzo[e][1,4]diazepin-4(5H)-yl)methyl)-N-(pyridin-2-yl)benzamide], the 50% inhibitory concentration (IC50) was below 100 nM.
On to `O=C(Nc1cc(CN2C(=O)c3ccc(Cl)cc3NC(=O)[C@H]2Cc2ccccn2)ccc1C(=O)O)c1ccccn1` [Example 21a, (R)-4-((8-Chloro-2,5-dioxo-3-(pyridin-2-ylmethyl)-2,3-dihydro-1H-benzo[e][1,4]diazepin-4(5H)-yl)methyl)-2-(picolinamido)benzoic Acid], for which the IC50 is 1000 to 10000 nM.
Still for that read-out and setting: the same measure for `CN1CCC(CC(=O)Nc2cc(CN3C(=O)c4ccc(Cl)cc4NC(=O)[C@H]3Cc3ccccn3)ccc2C(=O)O)CC1` [Example 22l]: 100 to 999 nM.
For the compound `COc1ccc(NC(=O)C2CCC(CN3C(=O)c4ccc(Cl)cc4NC(=O)[C@H]3Cc3ccccn3)CC2)nc1` (stereo partly drawn) [Example 4bz, (1R,4r)-4-(((R)-8-chloro-2,5-dioxo-3-(pyridin-2-ylmethyl)-2,3-dihydro-1H-benzo[e][1,4]diazepin-4(5H)-yl)methyl)-N-(5-methoxypyridin-2-yl)cyclohexanecarboxamide], where the note is “read-out: TcdB UDP-Glucose hydrolysis activity (IC50, coded), UDP-Glucose hydrolysis assay, fluorescence polarization”, the half-maximal inhibitory concentration (IC50) was below 100 nM.
As to `O=C(Nc1ccccn1)c1ccc(CN2C(=O)c3ccc(Cl)cc3NC(=O)[C@H]2Cc2cccc(Cl)c2)cc1` [Example 4aa, (R)-4-((8-chloro-3-(3-chlorobenzyl)-2,5-dioxo-2,3-dihydro-1H-benzo[e][1,4]diazepin-4(5H)-yl)methyl)-N-(pyridin-2-yl)benzamide], the half-inhibitory concentration (IC50) was below 100 nM.
On the same count and under the same terms, the same measure for `O=C(O)c1ccc(CN2C(=O)c3ccc(Cl)cc3NC(=O)[C@H]2Cc2ccc(F)cc2)cc1` [Example 3d]: 1000 to 10000 nM.
Still for that read-out and setting: the value for `Cc1ccc(-c2cc(CN3C(=O)c4ccc(Cl)cc4NC(=O)[C@H]3Cc3ccccn3)ccc2C(=O)O)cc1` [Example 8g, (R)-5-((8-chloro-2,5-dioxo-3-(pyridin-2-ylmethyl)-2,3-dihydro-1H-benzo[e][1,4]diazepin-4(5H)-yl)methyl)-4′-methyl-[1,1′-biphenyl]-2-carboxylic acid] was 100 to 999 nM; that for `O=C(Nc1ccccn1)c1ccc(CN2C(=O)c3ccc(Cl)cc3NC(=O)[C@@H]2Cc2cccnc2)cc1` [Example 35m] was 100 to 999 nM.
`COc1ccc(NC(=O)c2ccc(CN3C(=O)c4ccc(Cl)cc4NC(=O)[C@H]3Cc3ccccn3)cc2)nc1` [Example 4ao, (R)-4-((8-chloro-2,5-dioxo-3-(pyridin-2-ylmethyl)-2,3-dihydro-1H-benzo[e][1,4]diazepin-4(5H)-yl)methyl)-N-(5-methoxypyridin-2-yl)benzamide]: the 50% inhibitory concentration (IC50) was below 100 nM.
Turning to `O=C(Nc1ccccn1)c1ccc(CN2C(=O)c3ccc(Cl)cc3NC(=O)[C@H]2Cc2cccc(F)c2)cc1` [Example 35j], the IC50 is below 100 nM.
Take `Cc1cccc(C(=O)c2ccc(CN3C(=O)c4ccc(Cl)cc4NC(=O)[C@H]3Cc3ccccn3)cc2)n1` [Example 11e, (R)-8-chloro-4-(4-(6-methylpicolimoyl)benzyl)-3-(pyridin-2-ylmethyl)-3,4-dihydro-1H-benzo[e][1,4]diazepine-2,5-dione]: the IC50 lay in the range of 100 to 999 nM.
